The values that follow come from patent publication US9060959B2, “Synergistic compositions and method for potentiating anti-oxidative activity” (The State of Israel, Ministry of Agriculture & Rural …, priority 2003, dated 2015).

In assay [1] the test system is β-carotene oxidation catalyzed by metmyoglobin. The assay can be described thus: β-carotene co-oxidation in simulated gastric fluid. Format: biochemical. Here is the method: Here B carotene co-oxidation was determined in order to identify free radical damage during lipid peroxidation in the same model system of acid gastric fluid (FIG. 2).
However, the addition of catechin to the same system containing metmyoglobin inhibited β-carotene oxidation by 100% (FIG. 2).

The test system of assay [2] is peroxides / lipid peroxidation catalyzed by metmyoglobin. The assay is described as follows: Simulated gastric system comprising polyphenol and metmyoglobin catalyst, with antacid. Format: biochemical. To be noted: low acidic conditions obtained by addition of antacid, metmyoglobin catalyst. An excerpt:
An unexpected phenomenon established by the inventors of the present invention is that that in the stomach, generation or breakdown of peroxides by endogenous catalysts or catalysts obtained from food products, or components thereof, and food supplements can be selected by polyphenols and antacids. In other words, the appropriate combination of polyphenol and antacids can invert the catalyzed reaction from pro-oxidation to antioxidation consequently attenuating lipid peroxidation in the stomach.
The terms “a gastric-simulating system” or “simulated gastric system” are interchangeably used herein to describe an experimental setup comprising components which simulate, in-vitro, the environment of the GI tracts or components thereto. In a particular example, a gastric simulating system may comprise the following components: HCl 0.1N and pepsin (Kanner et al. ibid).
Hydroperoxides measurement in linoleic acid emulsions: Catechin was dissolved in 10% ethanol in water and the reaction tubes were incubated in triplicate in a shaking bath at 37° C. for 180 min. Samples of 25 or 50 μl were taken from the reaction tubes during the incubation and added to 475 or 950 μl, respectively, of FOX2 reagent. Before each experiment, old stock solution of linoleic acid was mixed with fresh solution in order to maintain an accurately consistent initial level of hydroperoxides.

For assay [3] the following is noted: in vivo; cited from earlier work.

Regarding catechin, in assay [1] (acid gastric fluid model system containing metmyoglobin), the “inhibition of β-carotene oxidation” value is given as 100%. In assay [1] (low acidic conditions obtained by addition of antacid, metmyoglobin catalyst), the β-carotene co-oxidation entry was “completely prevented”. In addition, in assay [2], the lipid peroxidation entry is “completely prevented” and the peroxide generation entry was “zero”.
For the compound `O=C([O-])[O-].[Ca+2]` [Calcium carbonate], the “raises pH of the stomach to” value in assay [3] is recorded as at most 7.0 pH.
In the case of `[Mg+2].[OH-].[OH-]` [Magnesium hydroxide], in assay [3], the “raises pH of the stomach to” value is on record as 9 pH.
